# Experimental data as given in US20220119446A1, “BIOMARKERS AND TREATMENT OF NEURONAL INJURY AND NEURODEGENERATION” (Board of Supervisons of Louisiana State University and …, priority 2018, published 2022).
# Entries after “also recorded” stand apart in the source; their conditions may differ. * marks the point of attachment. Boc = CC(C)(C)OC(=O)*
# Legend:
# ARPE-19 cells and hpRPE = assay: Apoptosis by Hoechst staining in RPE cells under UOS; type: cell-based, human; details: for apoptosis by UOS in the presence of the Wnt ligand: RPE cells under UOS with recombinant Wnt5a; for cell death by UOS on addition of Wnt5a: ARPE-19 cells and hpRPE under UOS, Wnt5a 50 ng/ml
# Experimental: ARPE-19 cells, can be plated and grown in DMEM/F-12 containing 10% FBS and 1× penicillin/streptomycin at 37° C., 5% CO2, 99% relative humidity for 24 h. […] 15-LOX-1 deficient cells can be maintained in the same medium as ARPE-19 with the addition of 500 μg/mL Geneticin (Life Technologies Corporation, Carlsbad, Calif.). Transfection can be performed in all cases using Lipofectamine 2000 (Life Technologies Corporation, Carlsbad, Calif.) following the manufacturer's recommendations. […] Experiments with transfection efficiency that yielded less than 80% can be discarded. For siRNA, we used 6 μl of Lipofectamine 2000 per 50 pmol of siRNA per mL of incubation medium, and, for plasmids, we used 6 μl of Lipofectamine 2000 per 2 μg of plasmid per mL of incubation medium. Cells can be incubated for 5 hours at 37° C., 5% CO2 and 99% relative humidity. […] When siRNA/plasmid co-transfection is required, siRNA and plasmid-carrying transfection mixes can be prepared separately and added one after the other in the same well. Oxidative stress treatments can be performed using 600 (ARPE-19) or 1600 (hRPE) μM H2O2, along with 10 ng/mL TNFα, for the required time indicated in each experiment. The treatment we used employed the low serum (0.5% serum) without hFGF. Treatment to induce uncompensated oxidative stress (UOS) can be performed after 8 hours of low-serum medium incubation unless specifically noted. Wnt5a, Wnt3a or NPD1 can be added immediately before induction of UOS. In the secretion experiments, Pitstop 2 can be added to the medium 2 hours before harvesting.
# (§1) Immunostaining can be performed in 8-well slide chambers and the Hoechst staining in 24-well plates. […] Briefly, cells can be fixed using 4% paraformaldehyde in PBS 1× for 20 min at room temperature or overnight at 4° C. After three washes with PBS, cells can be permeabilized using 0.1% Triton™ X-100 for five minutes and blocked using 10% normal serum and 1% BSA for one hour. […] Hoechst staining can be performed using same protocol of fixation. In one embodiment, permeabilization is done using methanol for 20 min at room temperature. […] Dying cells can be identified by size (0 to 50 pixels), intensity threshold, and circularity. The ratio of hyperpyknotic cells over the total can be calculated for nine randomly chosen fields per sample obtained from three independent wells per experiment. Each experiment can be repeated at least three times to confirm the findings.
# ARPE-19 cells, were plated and grown in DMEM/F-12 containing 10% FBS and 1× penicillin/streptomycin at 37° C., 5% CO2, 99% relative humidity for 24 h. […] 15-LOX-1 deficient cells were maintained in the same medium as ARPE-19 with the addition of 500 μg/mL Geneticin (Life Technologies Corporation). Transfection was performed in all cases using Lipofectamine 2000 (Life Technologies Corporation) following the manufacturer's recommendations. […] Experiments with transfection efficiency that yielded less than 80% were discarded. For siRNA, we used 6 μl of Lipofectamine 2000 per 50 pmol of siRNA per mL of incubation medium, and, for plasmids, we used 6 μl of Lipofectamine 2000 per 2 μg of plasmid per mL of incubation medium. Cells were incubated for 5 hours at 37° C., 5% CO2 and 99% relative humidity. […] When siRNA/plasmid co-transfection was required, siRNA and plasmid-carrying transfection mixes were prepared separately and added one after the other in the same well. […] The treatment we used employed the low serum (0.5% serum) without hFGF. Treatment to induce uncompensated oxidative stress (UOS) was performed after 8 hours of low-serum medium incubation unless specifically noted. Wnt5a, Wnt3a or NPD1 was added immediately before induction of UOS.
# Wnt5a/FZD5 = assay: Immunocytochemistry of Wnt5a/FZD5 colocalization and vesicles in hpRPE cells; type: cell-based, human; details: for size of FZD5/Wnt5a vesicles: Wnt5a added; for size of FZD5/Wnt5a vesicles / vesicle load (mean intensity per vesicle) / intensity and number of Wnt5a-positive vesicles / number of FZD5-positive vesicles: IMARIS; for vesicle load (mean intensity per vesicle): external Wnt5a added; for number of Wnt5a/FZD5 colocalized vesicles per field: UOS 1600 μM H2O2, 2 hours, +/− 50 ng/ml Wnt5a, no Pitstop2
# Experimental: To ascertain localization and interaction between FZD5 and Wnt5a we incubated hpRPE undergoing UOS with Wnt5a+/−NPD1 or other lipid mediators.
# as §1
# In an embodiment involving early stages of apoptosis, the total number of cells per field is assessed and counted to ensure unbiased observations. […] Settings can be adjusted in the conditions that show higher intensity and can be used throughout the remaining samples. In an embodiment, Pearson's colocalization coefficient (PCC) is obtained using FV1200 analysis software for every field in each experiment, and the mean and SEM are depicted in FIGS. 7-11.
# Immunostaining was performed in 8-well slide chambers and the Hoechst staining in 24 well plates. […] Briefly, cells were fixed using 4% paraformaldehyde in PBS 1× for 20 min at room temperature or overnight at 4° C. After three washes with PBS, cells were permeabilized using 0.1% Triton™ X-100 for five minutes and blocked using 10% normal serum and 1% BSA for one hour. […] Hoechst staining was performed using same protocol of fixation, but permeabilization was done using methanol for 20 min at room temperature. […] Dying cells were identified by size (0 to 50 pixels), intensity threshold and circularity. The ratio of hyperpyknotic cells over the total was calculated for nine randomly chosen fields per sample obtained from three independent wells per experiment. Each experiment was repeated at least three times to confirm the findings. In the experiments involving early stages of apoptosis, we assessed the total number of cells per field and counted them to ensure unbiased observations. […] Pearson's colocalization coefficient (PCC) was obtained using FV1200 analysis software for every field in each experiment, and the mean and SEM are depicted in Figures S1-S5. […] IMARIS software analysis was performed building a colocalization channel using the Costes thresholding, and the colocalized elements were analyzed using the spots function using the settings different spots sites, background subtraction and local contrast. The output obtained consisted on a collection of sizes (one per element in each picture) or the mean of the intensity in each spot.
Molecule,apoptosis by UOS in the presence of the Wnt ligand (ARPE-19 cells and hpRPE; Hoechst staining),"apoptosis in cells only exposed to UOS (ARPE-19 cells and hpRPE; no Wnt5a added, Hoechst staining)",size of FZD5/Wnt5a vesicles (Wnt5a/FZD5; hpRPE under UOS),vesicle load (mean intensity per vesicle) (Wnt5a/FZD5; hpRPE under UOS),intensity and number of Wnt5a-positive vesicles (Wnt5a/FZD5; hpRPE under UOS),number of FZD5-positive vesicles (Wnt5a/FZD5; hpRPE under UOS),number of Wnt5a/FZD5 colocalized vesicles per field (Wnt5a/FZD5; hpRPE),UOS-dependent NFkB activation and apoptosis (FIG. 18B legend) (ARPE-19 cells and hpRPE),"mode of Wnt5a and FZD5 signal intensity (Wnt5a/FZD5; hpRPE under UOS, absence of rWnt5a)","quantity of large only-Wnt5a positive spots (Wnt5a/FZD5; hpRPE, absence of Wnt5a)",cell death by UOS on addition of Wnt5a (ARPE-19 cells and hpRPE),cell death by UOS on addition of Wnt5a (ARPE-19 cells and hpRPE; listed as Recombinant Wnt5a),"effect of Wnt5a alone on RPE cells (apoptosis) (ARPE-19 cells and hpRPE; resting cells, no UOS)"
t-Boc-NH-Met-Asp-Gly-Cys-Glu-Leu-CO2H (Boc-MDGCEL-OH) [Box5],blocked apoptosis; also recorded: hindered apoptosis,decreased apoptosis; also recorded: prevented cell death,Neither NPD1 nor Box5 affected the magnitude of the Wnt5a effect,did not affected vesicle loads that showed FZD5/clathrin or Wnt5a/clathrin signal,did not modify the increase in intensity and number induced by UOS,decrease the number of FZD5-positive vesicles,decreased Wnt5a induction,–,–,–,–,–,–
"CC/C=C\C[C@H](O)\C=C/C=C/C=C/[C@H](O)C/C=C\C/C=C\CCC(=O)O [NPD1, 10R,17S-dihydroxy-docosa-4Z,7Z,11E,13E,15Z,19Z-hexaenoic acid]",blocked apoptosis; also recorded: hindered apoptosis,–,Neither NPD1 nor Box5 affected the magnitude of the Wnt5a effect,higher Wnt5a/FZD5 and FZD5/Clathrin vesicle intensity when Wnt5a was added,difference in mean intensity distribution,decrease the number of FZD5-positive vesicles,brought down the number of vesicles per field; also recorded: had the same effect; also recorded: decreased the amount of vesicles per field,counteracted these effects,restore both modes to control levels,increased,–,–,–
"Wnt5a: Recombinant Human/Mouse Wnt-5a Protein, CHO-derived (Gln38-Lys380), R&D systems 645-WN (protein) QVVIEANSWWSLGMNNPVQMSEVYIIGAQPLCSQLAGLSQGQKKLCHLYQDHMQYIGEGAKTGIKECQYQFRHRRWNCSTVDNTSVFGRVMQIGSRETAFTYAVSAAGVVNAMSRACREGELSTCGCSRAARPKDLPRDWLWGGCGDNIDYGYRFAKEFVDARERERIHAKGSYESARILMNLHNNEAGRRTVYNLADVACKCHGVSGSCSLKTCWLQLADFRKVGDALKEKYDSAAAMRLNSRGKLVQVNSRFNSPTTQDLVYIDPSPDYCVRNESTGSLGTQGRLCNKTSEGMDGCELMCCGRGYDQFKTVQTERCHCKFHWCCYVKCKKCTEIVDQFVCK",–,–,–,–,–,–,increased the number of vesicles that co-localize with FZD5,–,–,–,enhanced cell death triggered by H2O2; also recorded: enhances the percentage of cell death induced by UOS,potentiated cell death by UOS,no effect
